Values quoted from earlier work as cited in patent US11304932B2, “Diaryl and arylheteroaryl urea derivatives as modulators of the 5-HT2A serotonin receptor useful for the prophylaxis and treatment of hallucinations associated with a neurodegenerative disease” (Axovant Sciences GmbH, priority 2015, dated 2022).

Assays:
[1] = clozapine at low dose

Compound	tolerability and PK/PD profile (daily dose of 80 mg, studies completed to date)	safety and tolerability profile (previous clinical studies to date, proposed dose range)	efficacy in psychotic symptoms associated with Parkinson's Disease [1]
COc1ccc(NC(=O)Nc2ccc(F)cc2F)cc1-c1c(Br)cnn1C [Nelotanserin, 1-[3-(4-bromo-2-methyl-2H-pyrazol-3-yl)-4-methoxy-phenyl]-3-(2,4-difluoro-phenyl)-urea]	favorable tolerability and PK/PD profile	acceptable safety and tolerability profile	
CC(C)COc1ccc(CNC(=O)N(Cc2ccc(F)cc2)C2CCN(C)CC2)cc1 [pimavanserin, N-(4-fluorophenylmethyl)-N-(1-methylpiperidin-4-yl)-N′-(4-(2-methylpropyloxy)phenylmethyl)carbamide]			demonstrate efficacy
